System: Transport facilitation protein genes
Assay: DNA chip mRNA expression in yeast, transport facilitation protein genes (Table 5)
Type: cell-based, Saccharomyces cerevisiae S288C
In short: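 Ratios compare mRNA levels in stressed and control S. cerevisiae. Each toxicant was applied for two hours to log-phase cultures at 25° C. at a sub-lethal, growth-inhibiting level; fluorescent cDNA (Cy3- or Cy5-dUTP) was hybridized to a genome-wide yeast chip for over 12 h at 65° C.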

SMILES: COc1cc(CNC(=O)CCCCC=CC(C)C)ccc1O [(12), 8-methyl-N-vanillyl-6-nonenamide]
- The level of expressed mRNA in the presence of chemical substance/The level of expressed mRNA in the absence of chemical substance (yeast gene YGR281W): 2.4
- The level of expressed mRNA in the presence of chemical substance/The level of expressed mRNA in the absence of chemical substance (yeast gene YHL035C): 1.4
- The level of expressed mRNA in the presence of chemical substance/The level of expressed mRNA in the absence of chemical substance (yeast gene YHL040C): 2.0
- The level of expressed mRNA in the presence of chemical substance/The level of expressed mRNA in the absence of chemical substance (yeast gene YHL047C): 2.6
- The level of expressed mRNA in the presence of chemical substance/The level of expressed mRNA in the absence of chemical substance (yeast gene YHR026W): 0.7
- The level of expressed mRNA in the presence of chemical substance/The level of expressed mRNA in the absence of chemical substance (yeast gene YHR092C): 1.0
- The level of expressed mRNA in the presence of chemical substance/The level of expressed mRNA in the absence of chemical substance (yeast gene YHR094C): 0.9
- The level of expressed mRNA in the presence of chemical substance/The level of expressed mRNA in the absence of chemical substance (yeast gene YHR175W): 1.4
- The level of expressed mRNA in the presence of chemical substance/The level of expressed mRNA in the absence of chemical substance (yeast gene YIL006W): 0.9
- The level of expressed mRNA in the presence of chemical substance/The level of expressed mRNA in the absence of chemical substance (yeast gene YIL022W): 0.9
- The level of expressed mRNA in the presence of chemical substance/The level of expressed mRNA in the absence of chemical substance (yeast gene YIL056W): 1.0
- The level of expressed mRNA in the presence of chemical substance/The level of expressed mRNA in the absence of chemical substance (yeast gene YIL088C): 0.9
- The level of expressed mRNA in the presence of chemical substance/The level of expressed mRNA in the absence of chemical substance (yeast gene YJL034W): 1.6
- The level of expressed mRNA in the presence of chemical substance/The level of expressed mRNA in the absence of chemical substance (yeast gene YJL212C): 0.4
- The level of expressed mRNA in the presence of chemical substance/The level of expressed mRNA in the absence of chemical substance (yeast gene YJL219W): 1.1
- The level of expressed mRNA in the presence of chemical substance/The level of expressed mRNA in the absence of chemical substance (yeast gene YJR077C): 1.0
- The level of expressed mRNA in the presence of chemical substance/The level of expressed mRNA in the absence of chemical substance (yeast gene YJR106W): 0.9
- The level of expressed mRNA in the presence of chemical substance/The level of expressed mRNA in the absence of chemical substance (yeast gene YJR121W): 0.8
- The level of expressed mRNA in the presence of chemical substance/The level of expressed mRNA in the absence of chemical substance (yeast gene YKL016C): 1.0
- The level of expressed mRNA in the presence of chemical substance/The level of expressed mRNA in the absence of chemical substance (yeast gene YKL146W): 1.1
- The level of expressed mRNA in the presence of chemical substance/The level of expressed mRNA in the absence of chemical substance (yeast gene YKR039W): 1.5
- The level of expressed mRNA in the presence of chemical substance/The level of expressed mRNA in the absence of chemical substance (yeast gene YKR067W): 1.0
- The level of expressed mRNA in the presence of chemical substance/The level of expressed mRNA in the absence of chemical substance (yeast gene YLL028W): 1.3
- The level of expressed mRNA in the presence of chemical substance/The level of expressed mRNA in the absence of chemical substance (yeast gene YLL055W): 0.7
- The level of expressed mRNA in the presence of chemical substance/The level of expressed mRNA in the absence of chemical substance (yeast gene YLR081W): 1.0
- The level of expressed mRNA in the presence of chemical substance/The level of expressed mRNA in the absence of chemical substance (yeast gene YLR295C): 0.5
- The level of expressed mRNA in the presence of chemical substance/The level of expressed mRNA in the absence of chemical substance (yeast gene YLR348C): 0.9
- The level of expressed mRNA in the presence of chemical substance/The level of expressed mRNA in the absence of chemical substance (yeast gene YLR378C): 1.2
- The level of expressed mRNA in the presence of chemical substance/The level of expressed mRNA in the absence of chemical substance (yeast gene YML116W): 0.5
- The level of expressed mRNA in the presence of chemical substance/The level of expressed mRNA in the absence of chemical substance (yeast gene YMR011W): 0.8
- The level of expressed mRNA in the presence of chemical substance/The level of expressed mRNA in the absence of chemical substance (yeast gene YMR162C): 0.7
- The level of expressed mRNA in the presence of chemical substance/The level of expressed mRNA in the absence of chemical substance (yeast gene YMR203W): 0.7
- The level of expressed mRNA in the presence of chemical substance/The level of expressed mRNA in the absence of chemical substance (yeast gene YNL055C): 1.7
- The level of expressed mRNA in the presence of chemical substance/The level of expressed mRNA in the absence of chemical substance (yeast gene YNL259C): 0.7
- The level of expressed mRNA in the presence of chemical substance/The level of expressed mRNA in the absence of chemical substance (yeast gene YNR072W): 1.0
- The level of expressed mRNA in the presence of chemical substance/The level of expressed mRNA in the absence of chemical substance (yeast gene YOL119C): 0.9
- The level of expressed mRNA in the presence of chemical substance/The level of expressed mRNA in the absence of chemical substance (yeast gene YOL156W): 0.9
- The level of expressed mRNA in the presence of chemical substance/The level of expressed mRNA in the absence of chemical substance (yeast gene YOL163W): 1.0
- The level of expressed mRNA in the presence of chemical substance/The level of expressed mRNA in the absence of chemical substance (yeast gene YOR035C): 1.1
- The level of expressed mRNA in the presence of chemical substance/The level of expressed mRNA in the absence of chemical substance (yeast gene YOR130C): 0.9
- The level of expressed mRNA in the presence of chemical substance/The level of expressed mRNA in the absence of chemical substance (yeast gene YOR153W): 4.0
- The level of expressed mRNA in the presence of chemical substance/The level of expressed mRNA in the absence of chemical substance (yeast gene YOR270C): 0.7
- The level of expressed mRNA in the presence of chemical substance/The level of expressed mRNA in the absence of chemical substance (yeast gene YOR273C): 0.8
- The level of expressed mRNA in the presence of chemical substance/The level of expressed mRNA in the absence of chemical substance (yeast gene YOR316C): 1.1
- The level of expressed mRNA in the presence of chemical substance/The level of expressed mRNA in the absence of chemical substance (yeast gene YOR328W): 1.8
- The level of expressed mRNA in the presence of chemical substance/The level of expressed mRNA in the absence of chemical substance (yeast gene YOR332W): 1.0
- The level of expressed mRNA in the presence of chemical substance/The level of expressed mRNA in the absence of chemical substance (yeast gene YOR348C): 0.7
- The level of expressed mRNA in the presence of chemical substance/The level of expressed mRNA in the absence of chemical substance (yeast gene YPL036W): 0.5
- The level of expressed mRNA in the presence of chemical substance/The level of expressed mRNA in the absence of chemical substance (yeast gene YPL134C): 0.8
- The level of expressed mRNA in the presence of chemical substance/The level of expressed mRNA in the absence of chemical substance (yeast gene YPL265W): 0.9
- The level of expressed mRNA in the presence of chemical substance/The level of expressed mRNA in the absence of chemical substance (yeast gene YPL271W): 0.8
- The level of expressed mRNA in the presence of chemical substance/The level of expressed mRNA in the absence of chemical substance (yeast gene YPR124W): 0.8
- The level of expressed mRNA in the presence of chemical substance/The level of expressed mRNA in the absence of chemical substance (yeast gene YPR192W): 0.5
- The level of expressed mRNA in the presence of chemical substance/The level of expressed mRNA in the absence of chemical substance (yeast gene YPR194C): 0.7

— patent US8192962B2, “Processes for detecting toxic substances” (Daikin Industries, Ltd., priority 2001, dated 2012)
